# According to US20090215853A1, “Flavopereirine and alstonine combinations in the treatment and prevention of prostate cancer” (Natural Source International, priority 2004, published 2009):
# Key:
# [1] = tested on: LNCaP cells; assay: Induction of apoptosis in LNCaP cells (PARP cleavage, Caspase-3 activity); format: cell-based, human; settings: 24 hours (FIG. 2)
# [2] = tested on: normal DNA; settings: Oncotest; cited from earlier work
structure (smiles),measurement,setting,value
COC(=O)C1=CO[C@@H](C)[C@@H]2Cn3ccc4c5ccccc5nc-4c3C[C@H]12 [alstonine],apoptosis as determined by cleavage of PARP and induction of Caspase-3,[1],relatively minor effect
same,effect on normal DNA,[2],no effect on normal DNA
CCc1ccc2c3[nH]c4ccccc4c3cc[n+]2c1 [flavopereirine],apoptosis as determined by cleavage of PARP and induction of Caspase-3,[1],induction of apoptosis
same,effect on normal DNA,[2],no effect on normal DNA
